Test results: patent US12161632B2, “Compositions and methods of treating cardiac fibrosis with ifetroban” (Cumberland Pharmaceuticals Inc., priority 2014, dated 2024)
“Also recorded” adds a separate entry of the source. Like-named read-outs stand apart in the source and are kept apart here.

How the values were obtained:
[1] = tested on: cultured cardiomyocytes given exogenous TGF-ß; experiment: TGF-ß signalling in cultured cardiomyocytes (PAI-1 expression, promoter luciferase); format: cell-based; conditions: compared to vehicle-treated cells
[2] = tested on: RV proteins (TP receptor, MHC, phospho-SMAD2/3, TSP-4); conditions: for TSP-4 protein expression in RV: high dose 25 mg/kg/day
Protocol: Mice underwent pulmonary arterial banding (PAB) or sham surgery, and were treated for 2 weeks with vehicle or ifetroban (competitive antagonist of TPα/TPβ) in the drinking water.
The effect of ifetroban treatment on known fibrotic and anti-fibrotic signaling pathways was examined.
In another arm of this example, low dose (3 mg/kg/day) ifetroban was administered to mice via the drinking water for 2 weeks following pulmonary artery banding.

[3] = tested on: pulmonary artery banding (PAB) model of right ventricular pressure overload; experiment: PAB model of right ventricular pressure overload: hemodynamics, echocardiography, histology (Example VII); format: in vivo; conditions: PAB mice, low dose 3 mg/kg/day via drinking water, 2 weeks
[4] = tested on: right ventricle gene expression; experiment: Right ventricle gene expression, Affymetrix Mouse Gene 2.0 arrays (Example IV); format: in vivo, mice; conditions: banded mice, 25 mg/kg/day, 2 weeks
Protocol: FVB/N mice or mice with a GFP macrophage-specific lineage tracing marker (LysM-Cre) underwent pulmonary banding to directly increase load stress (or sham surgery for controls), and starting the following day received either vehicle or the thromboxane receptor antagonist Ifetroban sodium in their drinking water (25 mg/kg/day). After 2 weeks, noninvasive hemodynamics were obtained by transthoracic echocardiography and invasive hemodynamics were obtained by pressure-volume catheterization of the right heart prior to sacrifice. Hearts were assessed for fibrosis and macrophage infiltration. RNA from right ventricles were isolated and used for unbiased discovery of altered gene expression using Affymetrix Mouse Gene 2.0 arrays performed on four groups (banded or sham). LysM-Cre mouse hearts were flash-frozen whole, cross-sectioned, and assessed by microscopy for fibrosis and macrophage infiltration. Differences between groups were assessed by ANOVA and t-tests. Correlations were assessed by Spearman correlation.

[5] = tested on: pulmonary artery banding (PAB) mouse model of pulmonary hypertension; experiment: Pulmonary artery banding (PAB) model: cardiovascular phenotyping and histology (Example V); format: in vivo, mice; conditions: 14 days
Protocol: Experimental Methods: In this pulmonary artery banding (PAB) animal model, we used wildtype or Rosa26-rtTA2 mice on a normal diet. Mice were anesthetized and subject to either PAB (20 mice) or sham surgery (10 mice) at 4-6 months of age. Following the procedure, the mice were given either ifetroban water at 30 mg/kg/day or normal drinking water, and after 14 days of treatment we performed cardiovascular phenotyping followed by terminal sacrifice, histology and gene expression arrays.
Echocardiograms to assess cardiac output were obtained the day prior to catheterization and sacrifice. Our standard cardiovascular phenotyping continued with systemic pressure measurement by tail vein cuff, and intrajugular heart catheterization with measurement of right ventricular systolic pressure (RVSP) for peak pressure, diastolic pressure, diastolic time constant, arterial elastance, ejection fraction, and stroke volume.
(§1) Following sacrifice, right ventricular hypertrophy was assessed in each animal as a percentage of heart weight. A random fraction of the right hearts were fixed in formalin for histology and examined for indices of fibrosis; other hearts were snap frozen for gene expression analysis via RNA microarray. Right hearts and lungs were collected for analysis of protein expression and gene expression array. Left lungs were fixed and stained. Platelet deposition was examined in small pulmonary artery vessels. The remaining organs were harvested and frozen in liquid nitrogen for potential gene expression analysis.

[6] = tested on: RV gene expression; experiment: RV RNA expression arrays in PAB/sham mice (Example V); format: in vivo; conditions: 30 mg/kg/day, 14 days
Protocol: as §1
As part of this study, RNA extracted and expression analysis was performed using Mouse Genone 2.0 Affymetrix expression arrays. (FIG. 4C). The Array design was 2×2×2: Sham/Banded×Vehicle/Ifetroban×M/F. In total, there were 8 arrays; each array was a pool of RV from 3 mice. Only mice with an RVSP>30 were used for the banded groups. Banding itself altered 199 genes (ABS (Diff in averages)—Sum of standard deviations)>0.4 comparing vehicle banded to sham, and expression of 49 of those genes was enhanced by ifetroban (difference >0.4) and expression of 29 of those genes was attenuated by ifetroban (difference >0.4). […] Res., 2011 Jul. […] 15; 45(4):511-8.

[7] = tested on: RV monocytes / macrophages; experiment: Cardiac monocytes: LysM-Cre lineage tracing and flow cytometry of RV (Example VII); format: in vivo, mice
Protocol: Both male and female age-matched C57Bl/6 or FVB/NJ mice, obtained by in-house breeding, were used for pulmonary artery banding. LysM-GFP mice were obtained by cross-breeding LysM-Cre×mTomato/GFP reporter mice B6.129P2-Lyz2tm1(cre)Ifo/J (a gift from Tim Blackwell)×Gt(ROSA)26Sortm4(ACTB-tdTomato, -EGFP)Luo (JAX stock #007676). The day following surgery, mice were given either 25 mg/kg/day IFETROBAN (Cumberland Pharmaceuticals Inc., Nashville, TN) in drinking water or normal drinking water (vehicle) for 2 weeks or 6 weeks prior to hemodynamic evaluation. Mice were weighed and water was changed once a week.
TP receptors are also expressed on monocytes, and blockade of these receptors may have immune-specific effects. To determine whether the decrease in fibrosis seen with TP receptor inhibition was due to decreased macrophage infiltration or proliferation in the RV, PAB on LysM-Cre mice expressing eGFP under the LysozymeM promoter was performed, where all cells that have ever had monocyte lineage are labeled with GFP, even if they have later differentiated. […] Transgenic LysM-Cre×flox-mTomato-flox eGFP mice were used to label cells of monocyte derivation in the RV. These mice express a fluorescent red, except in cells derived from monocyte lineage (even if they have later differentiated), which express a fluorescent green. […] Flow sorting of whole RV for circulating markers found a non-significant trend towards an increase in PA-banded mice that was blocked by ifetroban.

[8] = tested on: α and ß isoforms of the TP receptor; conditions: cited from earlier work
[9] = tested on: pulmonary artery banded wild-type mice; experiment: Pulmonary artery banding, two or six weeks of treatment: histology and echocardiography (Example VI); format: in vivo; conditions: PAB mice, 30 mg/kg/day, 6 weeks
Protocol: Wild-type mice underwent pulmonary artery banding followed by two weeks or six weeks of treatment with ifetroban (30 mg/kg/day via the drinking water) vs. control (plain drinking water). The pulmonary artery band mimics pulmonary hypertension and right heart failure.

[10] = PAB mice, 25 mg/kg/day, 2 weeks

## CCCCCNC(=O)c1coc([C@H]2[C@@H](Cc3ccccc3CCC(=O)O)[C@@H]3CC[C@H]2O3)n1 [ifetroban, [1S-(1α,2α,3α,4α)]-2-[[3-[4-[(Pentylamino)carbonyl]-2-oxazolyl]-7-oxabicyclo[2.2.1]hept-2-yl]methyl]-benzenepropanoic acid]
[1]
  PAI-1 expression or promoter activity: no change
[2]; 2 weeks following PAB or drug treatment
  TP receptor expression in the RV (Western blot): remained constant
[2]; PAB mice versus vehicle-treated mice
  phospho-SMAD2/3 associated with PAB: less phospho-SMAD2/3
[2]; PAB mice, 25 mg/kg/day
  localization of TSP-4 in RV: increased cardiomyocyte expression of TSP-4
[2]; [10]
  α-MHC protein expression in RV (Western blot): no change in α-MHC expression
  β-MHC protein expression in RV (Western blot): strongly induced
[2]; PAB mice, 2 weeks
  induction of the pro-fibrotic TGF-beta pathway: blocked induction
[2]; PAB mice, 2 weeks, 25 mg/kg/day
  TSP-4 protein expression in RV: increased TSP-4 protein; also recorded: increases the expression of antifibrotic TSP-4
[2]; PAB mice, 2 weeks, listed as Ifetroban, 25 mg/kg/day
  TSP-4 protein expression in RV: increased expression of anti-fibrotic thrombospondin-4
[2]; PAB mice, low dose 3 mg/kg/day, 2 weeks
  TSP-4 expression in RV (Western blot densitometry): does not
[3]
  fibrosis of the right ventricle (histology): does not prevent fibrosis
[4]
  anti-fibrotic pathways (THBS4, Asporin, LTBP2), expression arrays: induction of anti-fibrotic pathways including THBS4 and TGF-beta inhibitors Asporin and LTBP2
  pathways related to functional hypertrophy, expression arrays: induction of pathways related to functional hypertrophy
  pro-fibrotic pathways (PDGF-D, FBXO32), expression arrays: reduction of pro-fibrotic pathways such as PDGF-D and FBXO32
[5]; 30 mg/kg/day
  fibrosis in banded right ventricles: decreases fibrosis in banded right ventricles
[5]; PAB mice, 30 mg/kg/day in water
  right ventricular systolic pressure (RVSP): did not have an effect
[5]; banded mice, 30 mg/kg/day, p<0.05 unpaired t test
  ratio of tricuspid E to A wave: significantly increased
[5]; sham surgery and banded, 30 mg/kg/day
  fibrosis in cross-section of the right ventricle (trichrome-stained, 20×): reduced fibrosis in the right ventricle for both the sham surgery and the banded right ventricle
[6]; banded RV pools
  number of the 199 banding-altered genes whose expression was attenuated (difference >0.4): 29 genes
  number of the 199 banding-altered genes whose expression was enhanced (difference >0.4): 49 genes
[6]; banded RV
  expression of FBX032: reduces the expression of FBX032
  expression of Nmrk2, Meox1, Nkd2, and Pkhd1: enhances the expression of other genes
  expression of PDGF: reduces the expression of PDGF
  expression of genes involved with inhibition of TGF-Beta, Asporin and Ltbp2: enhanced the expression
  expression of genes related to collagen and cell-cell adhesion, particularly thrombospondin-4 (Thbs4): enhances the expression
[6]; banded mice
  expression of pro-fibrotic and inflammatory genes: decreases expression
  expression of pro-muscularization genes: increases expression
[7]; LysM-Cre reporter mice, ifetroban
  PAB-induced increase in green (monocyte lineage) cells in RV: not in ifetroban-treated mice
[7]; wildtype mice, PAB
  flow sorting of whole RV for circulating markers: non-significant trend towards an increase in PA-banded mice: blocked
[8]
  blockade of TPα and TPβ receptor isoforms: effectively blocked
[9]
  cardiomyocyte diameter in the right ventricle: protected against increases in cardiomyocyte diameter
  echocardiography, left ventricular cardiac function (end diastolic/systolic volume, stroke volume, ejection fraction, fractional shortening): cardiac function values similar to the animals that underwent sham surgery; also recorded: echo values similar to sham surgery animals
  right ventricular fibrosis: reduced right ventricular fibrosis
